Read-outs that look alike come from different tables or passages of the source.
Experiments:
Puccinia triticina = test: Fungicidal activity: Wheat Brown Rust (PUCCRT), wheat seedlings; format: in vivo; conditions: for pest or weed control at 121.5 g/ha: Low Volume (121.5 g/H); for pest or weed control at 100 µg/mL: High Volume (100 ppm)
Protocol: Technical grades of materials were dissolved in acetone, which were then mixed with nine volumes of water containing 110 ppm Triton X-100. The fungicide solutions were applied onto wheat seedlings using an automated booth sprayer to run-off. All sprayed plants were allowed to air dry prior to further handling. All fungicides were evaluated using the aforementioned method for their activity vs. all target diseases, unless stated otherwise. Wheat leaf blotch and brown rust activity were also evaluated using track spray applications, in which case the fungicides were formulated as EC formulations, containing 0.1% Trycol 5941 in the spray solutions. Wheat plants (variety Yuma) were grown from seed in a greenhouse in 50% mineral soil/50% soil-less Metro mix until the first leaf was fully emerged, with 7-10 seedlings per pot. These plants were inoculated with an aqueous spore suspension of Zymoseptoria tritici either prior to or after fungicide treatments. After inoculation the plants were kept in 100% relative humidity (one day in a dark dew chamber followed by two to three days in a lighted dew chamber at 20° C.) to permit spores to germinate and infect the leaf. The plants were then transferred to a greenhouse set at 20° C. for disease to develop. When disease symptoms were fully expressed on the 1st leaves of untreated plants, infection levels were assessed on a scale of 0 to 100 percent disease severity. Percent disease control was calculated using the ratio of disease severity on treated plants relative to untreated plants. Example B: Evaluation of Fungicidal Activity: Wheat Brown Rust (Puccinia triticina; Synonym: Puccinia recondita f. sp. tritici; Bayer Code PUCCRT) Wheat plants (variety Yuma) were grown from seed in a greenhouse in 50% mineral soil/50% soil-less Metro mix until the first leaf was fully emerged, with 7-10 seedlings per pot. These plants were inoculated with an aqueous spore suspension of Puccinia triticina either prior to or after fungicide treatments. After inoculation the plants were kept in a dark dew room at 22° C. with 100% relative humidity overnight to permit spores to germinate and infect the leaf. The plants were then transferred to a greenhouse set at 24° C. for disease to develop. Fungicide formulation, application and disease assessment followed the procedures as described in the Example A.

[1] = test system: Mycosphaerella graminicola; Anamorph: Zymoseptoria tritici; test: Fungicidal activity: Leaf Blotch of Wheat (SEPTTR), wheat seedlings; format: in vivo; conditions: wheat; for pest or weed control at 121.5 g/ha: Low Volume (121.5 g/H); for pest or weed control at 100 µg/mL: High Volume (100 ppm)
Protocol: Example A: Evaluation of Fungicidal Activity: Leaf Blotch of Wheat (Mycosphaerella graminicola; Anamorph: Zymoseptoria tritici; Bayer Code […]) Technical grades of materials were dissolved in acetone, which were then mixed with nine volumes of water containing 110 ppm Triton X-100. The fungicide solutions were applied onto wheat seedlings using an automated booth sprayer to run-off. All sprayed plants were allowed to air dry prior to further handling. All fungicides were evaluated using the aforementioned method for their activity vs. all target diseases, unless stated otherwise. Wheat leaf blotch and brown rust activity were also evaluated using track spray applications, in which case the fungicides were formulated as EC formulations, containing 0.1% Trycol 5941 in the spray solutions. Wheat plants (variety Yuma) were grown from seed in a greenhouse in 50% mineral soil/50% soil-less Metro mix until the first leaf was fully emerged, with 7-10 seedlings per pot. These plants were inoculated with an aqueous spore suspension of Zymoseptoria tritici either prior to or after fungicide treatments. After inoculation the plants were kept in 100% relative humidity (one day in a dark dew chamber followed by two to three days in a lighted dew chamber at 20° C.) to permit spores to germinate and infect the leaf. The plants were then transferred to a greenhouse set at 20° C. for disease to develop. When disease symptoms were fully expressed on the 1st leaves of untreated plants, infection levels were assessed on a scale of 0 to 100 percent disease severity. Percent disease control was calculated using the ratio of disease severity on treated plants relative to untreated plants.

[2] = 24 h, 1 Day Protectant, read-out: PUCCRT disease control rating, 1DP
[3] = 72 h, 3 Day Curative, read-out: PUCCRT disease control rating, 3DC
[4] = 24 h, 1 Day Protectant, read-out: SEPTTR disease control rating, 1DP
[5] = 72 h, 3 Day Curative, read-out: SEPTTR disease control rating, 3DC

| Structure (SMILES) | pest or weed control at 121.5 g/ha (Puccinia triticina; [2]) | pest or weed control at 121.5 g/ha (Puccinia triticina; [3]) | pest or weed control at 121.5 g/ha [1, 4] | pest or weed control at 121.5 g/ha [1, 5] | pest or weed control at 100 µg/mL (Puccinia triticina; [2]) | pest or weed control at 100 µg/mL (Puccinia triticina; [3]) | pest or weed control at 100 µg/mL [1, 4] | pest or weed control at 100 µg/mL [1, 5] |
| --- | --- | --- | --- | --- | --- | --- | --- | --- |
| COc1ccnc(C(=O)N[C@H]2CCO[C@H](Cc3ccc(F)cc3)[C@@H](OC(=O)C(C)C)[C@H](C)OC2=O)c1OC(C)=O [Compound 76] | > 70% | > 70% | > 70% | > 70% |  |  |  |  |
| CCCO[C@H]1[C@H](C)OC(=O)[C@@H](NC(=O)c2nccc(OC)c2OC(C)=O)CCO[C@@H]1Cc1ccc(F)cc1 [Compound 81, 2-(((2R,3S,4S,7S)-2-(4-fluorobenzyl)-4-methyl-6-oxo-3-propoxy-1,5-dioxonan-7-yl)carbamoyl)-4-methoxypyridin-3-yl acetate] | < 70% | < 70% | < 70% | < 70% |  |  |  |  |
| CC[C@H]1OCC[C@H](NC(=O)c2nccc(OC)c2OC(C)=O)C(=O)O[C@@H](C)[C@@H]1OCC(C)C [Compound 93] | > 70% | > 70% | > 70% | > 70% |  |  |  |  |
| CCCO[C@H]1[C@H](C)OC(=O)[C@@H](NC(=O)c2nccc(OC)c2OCOC(C)=O)CCO[C@@H]1Cc1ccc(F)cc1 [Compound 79, ((2-(((2R,3S,4S,7S)-2-(4-fluorobenzyl)-4-methyl-6-oxo-3-propoxy-1,5-dioxonan-7-yl)carbamoyl)-4-methoxypyridin-3-yl)oxy)methyl acetate] | > 70% | > 70% | > 70% | > 70% |  |  |  |  |
| CC[C@H]1OCC[C@H](NC(=O)c2nccc(OC)c2O)C(=O)O[C@@H](C)[C@@H]1OC(=O)C(C)C [Compound 65] |  |  |  |  | > 70% | > 70% | < 70% | < 70% |
| COc1ccnc(C(=O)N[C@H]2CCOC[C@@H](Oc3ccccc3)[C@H](C)OC2=O)c1O [Compound 69] |  |  |  |  | > 70% | > 70% | > 70% | > 70% |
| COc1ccnc(C(=O)N[C@H]2CCO[C@H](Cc3ccc(F)cc3)[C@@H](Oc3ccccc3)[C@H](C)OC2=O)c1OC(C)=O [Compound 75] | > 70% | > 70% | > 70% | < 70% |  |  |  |  |
| COc1ccnc(C(=O)N[C@H]2CCO[C@H](Cc3ccc(F)cc3)[C@@H](OC(=O)C(C)C)[C@H](C)OC2=O)c1O [Compound 54] |  |  |  |  | > 70% | > 70% | > 70% | > 70% |
| COc1ccnc(C(=O)N[C@H]2CCOC[C@@H](OCCCC(F)(F)F)[C@H](C)OC2=O)c1O [Compound 68] |  |  |  |  | > 70% | > 70% | < 70% | < 70% |
| COc1ccnc(C(=O)N[C@H]2CCO[C@H](Cc3ccccc3)[C@@H](OCC(C)C)[C@H](C)OC2=O)c1OC(C)=O [Compound 71] | > 70% | > 70% | > 70% | > 70% |  |  |  |  |
| COc1ccnc(C(=O)N[C@H]2CCO[C@H](Cc3ccccc3)[C@@H](Oc3ccccc3)[C@H](C)OC2=O)c1O [Compound 57] |  |  |  |  | > 70% | > 70% | > 70% | > 70% |
| COc1ccnc(C(=O)N[C@H]2CCO[C@H](Cc3ccc(F)cc3)[C@@H](OCC(C)C)[C@H](C)OC2=O)c1OC(C)=O [Compound 77] | > 70% | > 70% | > 70% | > 70% |  |  |  |  |

Source: patent publication US20170334934A1, “Macrocyclic picolinamides as fungicides” (DOW AGROSCIENCES LLC, priority 2014, published 2017)
